Broadly, the melting point is the temperature, or range, at which the solid turns liquid.

As for `Cc1c(Br)cc(C(C)(C)C)c(O)c1C1=Nc2cc(Cl)ccc2S(=O)(=O)N1` [Example 1, 4-Bromo-6-tert-butyl-2-(6-chloro-1,1-dioxo-1,2-dihydro-1λ^6-benzo[1,2,4]thiadiazin-3-yl)-3-methylphenol], the melting point was 270 to 271 °C (dec.).

Values taken from patent publication US8022066B2, “2-(2-hydroxyphenyl) benzothiadiazines useful for treating obesity and diabetes” (High Point Pharmaceuticals, LLC, priority 2006, dated 2011).
